Measured values from patent US20260337177A1, “TEAD CORE INHIBITORS FOR CANCER THERAPEUTICS” (University of Florida Research Foundation, Incorporated, priority 2023, published 2026).
Like-named read-outs stand apart in the source and are kept apart here.

Columns and labels:
Huh7 cells [1] = assay: Huh7 cell proliferation assay (CCK8); assay type: cell-based, human; conditions: for IC50: Homo sapiens
Procedure: CCK8 assay kit was used to determine antiproliferative activity of synthesized compounds against Huh7 cell line. First, Huh7 cells were seeded into 96-well plates at a density of 3000 cells/well and incubated overnight. Cells were then co-incubated with compounds at 8 concentrations for 72 h. Then, the cell proliferation was determined by the CCK8 kit according to the standard protocol. Experiments were performed in triplicate.

AML12 cells = assay: AML12 normal liver cell growth inhibition (CCK8); assay type: cell-based
Hs578T cells = assay: Hs578T cell growth inhibition (CCK-8, 3 days); assay type: cell-based; conditions: Homo sapiens, Hs-578T, 72 h, triple negative breast cancer, read-out: Antiproliferative IC50, Hs578T
Procedure: The inhibitory effects of compound 22 were assessed against YAP TEAD related NF2-deficient mesothelioma cell NCI-H226 and triple negative breast cancer cell Hs578T. The growth inhibition ratio was measured using a CCK-8 assay after 3 days of treatments.

TEAD2-YBD = TEAD2-YBD (Homo sapiens, UniProt Q15562); assay: Intact protein mass spectrometry, covalent modification of TEAD2-YBD; assay type: binding
Description: To substantiate the covalent interaction between Compound 22 and TEAD2-YBD, intact mass spectrometry was employed to monitor the protein's mass change upon binding with the compound.
Human TEAD2-YBD (217-447) (TEAD2_HUMAN, UniProtKB Q15562) was expressed and purified as previously described.^79 To eliminate endogenous palmitoylation, Cys380Ser mutant (TEAD2-C380S) was generated and purified using the same protocol. [00392]hTEAD2 was expressed, purified, and deacylated as reported.^52 Briefly, the yap-binding domain (YBD) of […] was cloned in pET28a vector with the N terminal 6x His tag. The recombinant protein was induced at 16 ° C using 0.2 mM isopropyl bD-1-thiogalactopyranoside (IPTG) for 10 h for overexpression in Escherichia coli strain BL2 (DE3) CodonPlus competent cells (Invitrogen). Then cells were harvested, followed by lysis and the supernatant was loaded onto the HisTrap FF column (GE Healthcare). The hTEAD4-YBD was eluted with elution buffer (50 mM Hepes 8.0, 300 mM NaCl, 10% Glycerol, 1 mM TCEP, 125 mM imidazole). To eliminate the endogenous fatty acid, the protein was incubated with 0.2 mM hydroxylamine for 2 h and further purified through gel filtration chromatography in the final buffer (25 mM Hepes pH 8.0, 100 mM NaCl, 1 mM TCEP, and 5% glycerol). Collected fractions were concentrated to 5 mg/mL and flash frozen for further use. […]

Huh7 cells [2] = assay: Colony formation (clonogenic) assay, Huh7; assay type: cell-based; conditions: Homo sapiens, Huh-7, 48 h, read-out: Colony formation, rate of inhibition, Huh7
Procedure: The ability of compound 22 to inhibit the proliferation of liver cancer cell lines Huh7 and HepG2 was further assessed using a clonogenic assay.
Huh7 or HepG2 (500 cells/well) were plated into 6 well plates (500 cells per well) and treated with 0 or 5 μM compound 22. Colonies were grown in the absence of soft agar for 2 weeks in a humidified atmosphere of 5% C02 at 37 ° C Crystal violet blue solution (Sigma) was used to stain the colonies for one hour and fixed in methanol followed by counting under a microscope. Triplicate wells were used for each cell line and three independent experiments were performed.

CTGF [3] = assay: CTGF mRNA expression by RT-qPCR in Huh7 cells; assay type: cell-based, human; conditions: dose-dependent
Procedure: (§1) Huh7 and HepG2 liver cancer cells were seeded at 1×10^6 cells/dish and allowed to adhere overnight. The cells were then treated with indicated doses of compounds in medium for 24 hours. The cells were then harvested, and total RNA was purified using the Aurum total RNA mini kit (Bio-Rad #732-6820) according to the manufacturer's instructions. Complementary DNA was synthesized from 500 ng total RNA template by iScript reverse transcription kit (Bio-Rad #1725037) according to the manufacturer's instructions. Real-time PCR reactions utilized 60 ng cDNA and PrimePCR primers from Bio-Rad (Unique Assay ID: human GAPDH-qHsaCEP0041396, human CTGF-qHsaCEP0024255, human CYR61-qHsaCEP0024230) designed for SYBR Green gene expression analysis (Bio-Rad #1726270). All reactions were carried out in triplicate using Quant Studio 3 PCR system (Applied Biosystems). Relative gene expression level was quantified via ΔΔCt method by using GAPDH as an endogenous reference.

CTGF [4] = assay: CTGF mRNA expression by RT-qPCR in HepG2 cells; assay type: cell-based, human; conditions: dose-dependent
Procedure: as §1

Huh7 cells [5] = assay: Apoptosis by calcein AM and ethidium homodimer-1 staining, Huh7; assay type: cell-based, human

Sequence of TEAD2-YBD (Q15562 217-447): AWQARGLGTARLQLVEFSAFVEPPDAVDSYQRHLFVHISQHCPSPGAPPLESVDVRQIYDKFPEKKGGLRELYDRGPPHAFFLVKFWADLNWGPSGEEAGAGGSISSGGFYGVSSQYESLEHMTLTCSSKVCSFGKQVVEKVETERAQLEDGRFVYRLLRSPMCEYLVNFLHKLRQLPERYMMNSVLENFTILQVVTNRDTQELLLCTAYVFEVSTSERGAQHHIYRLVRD

O=C(CCl)c1c[nH]c2cc(Cl)c(OCc3cccc(C(F)(F)F)c3)cc12 [Compound 22, 2-chloro-1-(6-chloro-5-((3-(trifluoromethyl)benzyl)oxy)-1H-indol-3-yl)ethan-1-one]
IC50 (Huh7 cells [1]; Huh-7, 72 h, 3 days, CCK8, mean ± SD of three independent experiments, read-out: Cell proliferation assay IC50, Huh7): 0.9 ± 0.3 µM
IC50 (Huh7 cells [1]; Huh-7, Table 3 column is in μM, read-out: Huh7 cell growth inhibition / proliferation IC50): 0.9 µM
Activity ratio, 3-CF3 derivative compound 22 vs para-analogue compound 23 (Huh7 cells [1]; more active than compound 23, Huh7): 16 fold
Toxicity towards normal liver cell line AML12 (AML12 cells): least toxic
Inhibitory rate, AML12 (inhibitory percentage of AML12 cell growth) (AML12 cells; 10 μM, 3 days): 22.1%
IC50 (Hs578T cells): 2600 nM
Labeling of TEAD2-YBD (TEAD2-YBD; 15 hours at room temperature): completely labeled with a single molecule
Intact mass shift of TEAD2-YBD (TEAD2-YBD; excess compound, covalent complex, room temperature): 365.5581 Da
inhibition at 5 µM (Huh7 cells [2]): 62.5%
CTGF mRNA expression, Huh7 (CTGF [3]): suppressed
CTGF mRNA expression, Huh7 (CTGF [3]; listed as compound 22): significantly inhibited
CTGF mRNA expression, HepG2 (CTGF [4]): significantly inhibited
Huh7 cell apoptosis (Huh7 cells [5]): promotes Huh7 cell apoptosis
